Test results as given in ChEMBL document CHEMBL1201862, “PubChem BioAssay data set” (2004).
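In this assay, cells in 96-well plates receive the compound at five concentrations for 48 hours. Endpoints are linearly interpolated between the surrounding concentrations. At the GI50, growth is halved.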 The source made the active and inactive calls. Cut-off read from the data, not from the text of the source: active = GI50 up to about 1.1 µM and inactive = higher.

Legend:
Assay in all cases: NCI-60 cell line screen, 48 h
[1] = system: NCI-H460
[2] = system: SK-MEL-2
[3] = system: HT-29
[4] = system: OVCAR-3
[5] = system: HOP-92
[6] = system: CAKI-1
[7] = system: OVCAR-4
[8] = system: ACHN
[9] = system: M14
[10] = system: SF-268
[11] = system: NCI-H522
[12] = system: TK-10
[13] = system: OVCAR-8
[14] = system: K562
[15] = system: A498
[16] = system: NCI-H226
[17] = system: RXF 393
[18] = system: Malme-3M
[19] = system: NCI/ADR-RES

Measured: GI50

CN(C)/C(=N\C#N)NCc1ccccc1
inactive: [1] > 100 µM | [2] > 100 µM | [3] > 100 µM | [4] > 100 µM | [5] > 100 µM | [6] > 100 µM | [7] > 100 µM | [8] > 100 µM | [9] > 100 µM | [10] > 100 µM | [11] > 100 µM | [12] > 100 µM | [13] > 100 µM

O=c1[nH]c(=O)n(C2CC(O)C(O)C(CO)O2)cc1F (centres undefined)
inactive: [1] > 100 µM | [2] > 100 µM | [3] > 100 µM | [4] > 100 µM | [5] > 100 µM | [14] > 100 µM | [15] > 100 µM | [7] > 100 µM | [16] > 100 µM | [17] > 100 µM | [18] > 100 µM | [8] > 100 µM | [9] > 100 µM | [10] > 100 µM | [11] > 100 µM | [12] > 100 µM | [13] > 100 µM

O=C(O)c1ccccc1NC(=O)C1CCCCC1
inactive: [1] 66.1 µM | [2] > 100 µM | [3] > 100 µM | [4] > 100 µM | [5] 6.08 µM | [14] > 100 µM | [15] 31.8 µM | [7] > 100 µM | [16] > 100 µM | [18] > 100 µM | [8] > 100 µM | [9] > 100 µM | [10] > 100 µM | [12] > 100 µM | [13] > 100 µM

COC(=O)/C(=N\NC(=O)C[N+](C)(C)C)C(C(=O)OC)C(=O)C(=O)Nc1ccccc1C(N)=O (centres undefined)
inactive: [1] > 100 µM | [2] > 100 µM | [3] > 100 µM | [4] > 100 µM | [14] > 100 µM | [6] > 100 µM | [15] > 100 µM | [7] > 100 µM | [16] > 100 µM | [17] > 100 µM | [18] > 100 µM | [8] > 100 µM | [9] > 100 µM | [10] > 100 µM | [11] > 100 µM | [12] > 100 µM

Cn1ccnc1CCc1ccc(Cl)c(Cl)c1
inactive: [1] > 100 µM | [2] > 100 µM | [3] 86.7 µM | [4] 74.1 µM | [5] 43.3 µM | [14] 54.7 µM | [6] > 100 µM | [15] 73.5 µM | [7] > 100 µM | [16] > 100 µM | [17] > 100 µM | [18] > 100 µM | [8] > 100 µM | [9] > 100 µM | [10] > 100 µM | [11] > 100 µM | [12] > 100 µM | [13] > 100 µM

C1=C2/CC[C@H](Sc3ccccc3)C2C2(CCCCC/1)OCCO2 (some centres undefined)
inactive: [1] 21.5 µM | [2] 15.8 µM | [3] 14.4 µM | [4] 18.7 µM | [5] 3.72 µM | [14] 24.7 µM | [16] 23.6 µM | [17] 15.7 µM | [18] 22.1 µM | [8] 26.7 µM | [10] 39.2 µM | [12] 83.9 µM | [13] 39.3 µM

CCN(CC)CCSc1c2ccccc2nc2cc(NCC(=O)Nc3ccccc3-c3ccccc3NC(=O)CNc3ccc4c(SCCN(CC)CC)c5ccccc5nc4c3)ccc12
inactive: [1] > 100 µM | [2] > 100 µM | [3] > 100 µM | [4] > 100 µM | [5] > 100 µM | [14] 24 µM | [6] > 100 µM | [15] > 100 µM | [7] > 88.9 µM | [16] > 100 µM | [17] > 100 µM | [18] > 77.3 µM | [8] > 100 µM | [9] > 100 µM | [10] > 100 µM | [11] 74.6 µM | [12] > 100 µM | [13] > 100 µM

CN[C@@H](C)[C@H](NC)c1ccccc1
inactive: [3] > 100 µM | [4] > 100 µM | [5] > 100 µM | [14] > 100 µM | [6] > 100 µM | [16] > 100 µM | [17] > 100 µM | [18] > 100 µM | [9] > 100 µM | [11] > 100 µM | [12] > 100 µM | [13] > 100 µM

CCCCCCCCCCCC(=O)OC(COC(N)=O)COc1ccc(Cl)cc1 (centres undefined)
inactive: [1] 23.7 µM | [2] 24.5 µM | [3] 20 µM | [4] 16.3 µM | [14] 19.2 µM | [6] 21.3 µM | [15] 65.9 µM | [7] 19.1 µM | [16] 17.3 µM | [17] 21 µM | [18] 21.9 µM | [8] > 100 µM | [9] 20.1 µM | [10] 20.6 µM | [11] 17.1 µM | [12] 30.6 µM | [13] 17.7 µM

CCCCn1/c(=N/C(=S)N(C)C)ss/c1=N\C(=S)N(C)C
inactive: [1] > 100 µM | [2] > 100 µM | [3] > 100 µM | [5] > 100 µM | [14] > 100 µM | [6] > 100 µM | [15] > 100 µM | [7] > 100 µM | [16] 7.28 µM | [17] > 100 µM | [18] > 100 µM | [8] > 100 µM | [9] > 100 µM | [10] > 100 µM | [12] 6.19 µM | [13] > 100 µM

O=C(CCC1C(=O)NC(=S)NC1=O)c1ccc2ccccc2c1
inactive: [1] > 100 µM | [2] > 100 µM | [3] > 100 µM | [4] > 100 µM | [5] > 100 µM | [14] > 100 µM | [6] > 100 µM | [15] > 100 µM | [7] > 100 µM | [16] > 100 µM | [17] > 100 µM | [18] > 100 µM | [8] > 100 µM | [9] > 100 µM | [10] > 100 µM | [11] 14.8 µM | [12] > 100 µM | [13] > 100 µM

CC(=O)NC1C(=O)CC(c2ccccc2)N(C)C1c1ccccc1 (centres undefined)
inactive: [1] > 100 µM | [2] > 100 µM | [3] 78 µM | [4] > 100 µM | [5] 82.6 µM | [14] > 100 µM | [6] > 100 µM | [15] > 100 µM | [7] > 100 µM | [16] > 100 µM | [17] > 100 µM | [18] > 100 µM | [8] > 100 µM | [9] 61 µM | [10] > 100 µM | [11] > 100 µM | [12] > 100 µM | [13] > 100 µM

CCCCCCCCCCCC(=O)OCC1OC(n2cc(F)c(=O)[nH]c2=O)C(NC(=O)OCc2ccccc2)C(OC(=O)CCCCCCCCCCC)C1O (centres undefined)
inactive: [1] > 100 µM | [2] > 100 µM | [3] > 100 µM | [4] > 100 µM | [5] > 100 µM | [14] > 100 µM | [6] > 100 µM | [15] > 100 µM | [7] > 100 µM | [16] > 100 µM | [17] > 100 µM | [18] > 100 µM | [8] > 100 µM | [9] > 100 µM | [10] > 100 µM | [11] > 100 µM | [12] > 100 µM | [13] > 100 µM

CC12CCC3(C1)[C@H](CC2=O)C[C@@H](OC(=O)c1ccccc1)C1C(C)(CO)CCC[C@@]13C (some centres undefined)
active: [1] 1.05 µM | [4] 0.24 µM | [14] 0.416 µM | [6] 0.861 µM | [8] 0.342 µM
inactive: [2] 8.32 µM | [3] 3.56 µM | [5] 3.65 µM | [15] 3.12 µM | [7] 1.44 µM | [16] 1.6 µM | [17] 1.71 µM | [18] 9.42 µM | [9] 3.61 µM | [10] 5.11 µM | [11] 2.02 µM | [12] > 21.9 µM | [13] 3.13 µM

COc1ccc(NC(=O)C(=O)Cc2nc3ccc([N+](=O)[O-])cc3nc2O)c(OC)c1
inactive: [1] > 100 µM | [2] > 100 µM | [3] > 100 µM | [4] > 100 µM | [5] > 100 µM | [14] > 100 µM | [6] > 100 µM | [15] 44.6 µM | [7] > 100 µM | [16] > 100 µM | [17] > 100 µM | [18] > 100 µM | [8] > 100 µM | [9] > 100 µM | [11] 83.4 µM | [12] > 100 µM

C[n+]1c(-c2ccc(/C=N/Nc3n[nH]c(=S)n3N/N=C/c3ccc(-c4cn5ccccc5[n+]4C)cc3)cc2)cn2ccccc21
inactive: [1] > 100 µM | [3] > 100 µM | [14] > 100 µM | [7] > 100 µM | [8] > 100 µM | [9] > 100 µM | [10] > 100 µM | [11] > 100 µM | [12] > 100 µM | [13] > 100 µM | [19] > 100 µM

CN(C)c1ccc(/C=C2\CNC/C(=C\c3ccc(N(C)C)cc3)C2=O)cc1
inactive: [1] 15.5 µM | [3] 10.9 µM | [4] 38.8 µM | [5] 15.6 µM | [14] 24.2 µM | [15] 17.6 µM | [7] 13.3 µM | [16] 32.7 µM | [17] 24 µM | [18] > 100 µM | [8] 24.4 µM | [9] 86.7 µM | [10] > 10 µM | [12] 33.3 µM | [13] 24.2 µM
